The NIST ThermoML archive (doi:10.1021/je049777o)

Test: xn = mol fraction of the nth substance listed
Conditions: 101.3 kPa, Liquid

Clc1ccccc1 [chlorobenzene] + COC(=O)OC
Conditions | mass density [kg/m3] | viscosity [mPa·s]
293.15 K, x2 = 0 | 1106.74 | 0.8084
293.15 K, x2 = 0.1225 | 1102.19 | 0.7794
293.15 K, x2 = 0.238 | 1097.84 | 0.7586
293.15 K, x2 = 0.3499 | 1093.69 | 0.7315
293.15 K, x2 = 0.4545 | 1089.67 | 0.7132
293.15 K, x2 = 0.5559 | 1085.85 | 0.698
293.15 K, x2 = 0.6518 | 1082.22 | 0.6805
293.15 K, x2 = 0.7445 | 1078.84 | 0.6567
293.15 K, x2 = 0.8332 | 1075.58 | 0.6449
293.15 K, x2 = 0.9182 | 1072.42 | 0.6244
298.15 K, x2 = 0 | 1101.33 | 0.7422
298.15 K, x2 = 0.1225 | 1096.65 | 0.7318
298.15 K, x2 = 0.238 | 1092.16 | 0.7193
298.15 K, x2 = 0.3499 | 1087.88 | 0.6956
298.15 K, x2 = 0.4545 | 1083.72 | 0.6864
298.15 K, x2 = 0.5559 | 1079.81 | 0.6627
298.15 K, x2 = 0.6518 | 1076.05 | 0.6427
298.15 K, x2 = 0.7445 | 1072.55 | 0.6226
298.15 K, x2 = 0.8332 | 1069.17 | 0.6017
298.15 K, x2 = 0.9182 | 1065.93 | 0.5856
303.15 K, x2 = 0 | 1095.96 | 0.7053
303.15 K, x2 = 0.1225 | 1091.12 | 0.6862
303.15 K, x2 = 0.238 | 1086.51 | 0.6624
303.15 K, x2 = 0.3499 | 1082.09 | 0.646
303.15 K, x2 = 0.4545 | 1077.8 | 0.6408
303.15 K, x2 = 0.5559 | 1073.76 | 0.6134
303.15 K, x2 = 0.6518 | 1069.91 | 0.6014
303.15 K, x2 = 0.7445 | 1066.28 | 0.5781
303.15 K, x2 = 0.8332 | 1062.78 | 0.5632
303.15 K, x2 = 0.9182 | 1059.45 | 0.5487
313.15 K, x2 = 0 | 1085.06 | 0.631
313.15 K, x2 = 0.1225 | 1079.97 | 0.6145
313.15 K, x2 = 0.238 | 1075.08 | 0.5875
313.15 K, x2 = 0.3499 | 1070.36 | 0.5709
313.15 K, x2 = 0.4545 | 1065.81 | 0.563
313.15 K, x2 = 0.5559 | 1061.54 | 0.5423
313.15 K, x2 = 0.6518 | 1057.46 | 0.5322
313.15 K, x2 = 0.7445 | 1053.56 | 0.5192
313.15 K, x2 = 0.8332 | 1049.86 | 0.4992
313.15 K, x2 = 0.9182 | 1046.32 | 0.4874
323.15 K, x2 = 0 | 1074.26 | 0.5677
323.15 K, x2 = 0.1225 | 1068.8 | 0.5546
323.15 K, x2 = 0.238 | 1063.63 | 0.5273
323.15 K, x2 = 0.3499 | 1058.61 | 0.5145
323.15 K, x2 = 0.4545 | 1053.8 | 0.5039
323.15 K, x2 = 0.5559 | 1049.32 | 0.4878
323.15 K, x2 = 0.6518 | 1044.96 | 0.4729
323.15 K, x2 = 0.7445 | 1040.83 | 0.4591
323.15 K, x2 = 0.8332 | 1036.88 | 0.4468
323.15 K, x2 = 0.9182 | 1033.12 | 0.4365
333.15 K, x2 = 0 | 1063.32 | 0.5069
333.15 K, x2 = 0.1225 | 1057.53 | 0.4954
333.15 K, x2 = 0.238 | 1052.07 | 0.4791
333.15 K, x2 = 0.3499 | 1046.76 | 0.4619
333.15 K, x2 = 0.4545 | 1041.66 | 0.452
333.15 K, x2 = 0.5559 | 1036.93 | 0.4401
333.15 K, x2 = 0.6518 | 1032.33 | 0.4277
333.15 K, x2 = 0.7445 | 1027.92 | 0.415
333.15 K, x2 = 0.8332 | 1023.72 | 0.4046
333.15 K, x2 = 0.9182 | 1019.74 | 0.3949
343.15 K, x2 = 0 | 1052.44 | 0.4658
343.15 K, x2 = 0.1225 | 1046.33 | 0.455
343.15 K, x2 = 0.238 | 1040.54 | 0.4326
343.15 K, x2 = 0.3499 | 1034.93 | 0.4242
343.15 K, x2 = 0.4545 | 1029.51 | 0.4142
343.15 K, x2 = 0.5559 | 1024.52 | 0.3978
343.15 K, x2 = 0.6518 | 1019.67 | 0.3879
343.15 K, x2 = 0.7445 | 1014.99 | 0.377
343.15 K, x2 = 0.8332 | 1010.53 | 0.3678
343.15 K, x2 = 0.9182 | 1006.31 | 0.3609
